Active and inactive are the calls of the source. The calls are words filed in the database; no cut-off is given here.
Legend:
NCI-H1299 = experiment: Cytotoxicity against human H1299 cells assessed as decrease in cell viability by MTT assay; assay type: functional, cell-based
[1] = target: T1, Heat shock protein HSP90 (Homo sapiens) (UniProt P07900+P08238); experiment: Inhibition of HSP90 in human H1299 cells assessed as suppression of HIF-1alpha at 10 nM preincubated for 72 hrs followed by incubation under hypoxic condition for 12 hrs by Western blot method relative to control; assay type: cell-based
[2] = target: T1, Heat shock protein HSP90 (Homo sapiens); experiment: Inhibition of HSP90 in human H1299 cells assessed as suppression of HIF-1alpha at 100 nM preincubated for 72 hrs followed by incubation under hypoxic condition for 12 hrs by Western blot method relative to control; assay type: cell-based
[3] = Cytotoxicity against human H1299 cells assessed as decrease in cell viability at 10 uM by MTT assay relative to control; assay type: functional, NCI-H1299
Homo sapiens [4] = species: Homo sapiens; experiment: Antiangiogenic activity in HRMEC assessed as inhibition of VEGF-induced cell proliferation under hypoxic condition by measuring [3H]-thymidine incorporation at 100 nM preincubated for 24 hrs followed by [3H]-thymidine addition measured after 6 hrs by liquid scintillation counter; assay type: functional
Homo sapiens [5] = species: Homo sapiens; experiment: Antiangiogenic activity in HRMEC assessed as inhibition of VEGF-induced cell migration under hypoxic condition at 100 nM after 4 hrs by hematoxylin and eosin staining-based phase-contrast microscopy; assay type: functional
[6] = target: T1, Heat shock protein HSP90 (Homo sapiens); experiment: Inhibition of HSP90 in human H1299 cells assessed as suppression of HIF-1alpha preincubated for 72 hrs followed by incubation under hypoxic condition for 12 hrs by Western blot method; assay type: cell-based

Compound	inhibition [2] [%]	further results
CC(C)c1cc(-c2n[nH]c(=O)n2-c2ccc3c(ccn3C)c2)c(O)cc1O	–	inhibition (Homo sapiens [4]): Active; inhibition (Homo sapiens [5]): Active
COc1cc2nccc(C(OC(C)=O)c3ccc4ncccc4c3OC)c2cc1OC (centres undefined)	67.4	–
COc1cc2ncnc(C(OC(=O)C3CC3)c3ccc4c(c3OC)C=CC(C)(C)O4)c2cc1OC (centres undefined)	71.9	–
COc1cc2nccc(C(OC(=O)C3CC3)c3ccc4ncccc4c3OC)c2cc1OC (centres undefined)	80.5	–
CCCC(=O)OC(c1ccc2c(c1OC)C=CC(C)(C)O2)c1ccnc2cc(OC)c(OC)cc12 (centres undefined)	90	–
COc1cc2cc(C(=O)c3ccc4c(c3OC)C=CC(C)(C)O4)oc2cc1OC	54.1	–
COc1cc2nccc(C(=O)c3ccc4c(c3OC)C=CC(C)(C)O4)c2cc1OC	70.5	–
COc1cc2nccc(C(=O)c3ccc4c(ccn4C)c3)c2cc1OC	86	–
COc1cc2cc(C(OC(C)=O)c3ccc4ncccc4c3)oc2cc1OC (centres undefined)	56	inhibition [1]: 88%
COc1cc2nccc(C(OC(=O)C3CC3)c3ccc4c(ccn4C)c3)c2cc1OC (centres undefined)	85	–
COc1cc2nccc(C(OC(C)=O)c3ccc4c(c3OC)C=CC(C)(C)O4)c2cc1OC (centres undefined)	62.2	inhibition [1]: 95.4%
CCC(=O)OC(c1ccc2c(c1OC)C=CC(C)(C)O2)c1ccnc2cc(OC)c(OC)cc12 (centres undefined)	96.4	–
COc1cc2nccc(C(OC(C)=O)c3ccc4ncccc4c3)c2cc1OC (centres undefined)	82.7	–
COc1cc2nccc(/C(=N\O)c3ccc4c(c3OC)C=CC(C)(C)O4)c2cc1OC	64	–
COc1cc2cc(C(OC(C)=O)c3ccc4c(c3OC)C=CC(C)(C)O4)oc2cc1OC (centres undefined)	72.2	–
COc1cc2ccc(C(OC(C)=O)c3ccc4c(c3OC)C=CC(C)(C)O4)nc2cc1OC (centres undefined)	73	–
CO/N=C(\c1cc2cc(OC)c(OC)cc2o1)c1ccc2c(c1OC)C=CC(C)(C)O2	65.6	–

Continued, in another order:

inhibition [2] [%]	Compound	further results
59.3	COc1cc2nccc(C(SC(C)=O)c3ccc4c(c3OC)C=CC(C)(C)O4)c2cc1OC (centres undefined)	Activity (NCI-H1299): Dose-dependent effect; inhibition [1]: 74%; Activity [3]: <50%
81	COc1cc2occ(C(OC(C)=O)c3ccc4c(c3OC)C=CC(C)(C)O4)c2cc1OC (centres undefined)	–
85.5	COc1cc2nccc(C(NC(=O)C3CC3)c3ccc4c(c3OC)C=CC(C)(C)O4)c2cc1OC (centres undefined)	–
117	COc1cc2cc(/C(=N\O)c3ccc4c(c3OC)C=CC(C)(C)O4)oc2cc1OC	–
72.9	COc1cc2nccc(C(NC(C)=O)c3ccc4c(c3OC)C=CC(C)(C)O4)c2cc1OC (centres undefined)	–
81.2	COc1cc2nccc(C(OC(N)=O)c3ccc4c(c3OC)C=CC(C)(C)O4)c2cc1OC (centres undefined)	–
102	COc1cc2cc(C(O)c3ccc4ncccc4c3)oc2cc1OC (centres undefined)	–
97.2	COc1cc2nccc(C(OC(C)=O)c3ccc4c(ccn4C)c3)c2cc1OC (centres undefined)	–
54.2	CO/N=C(/c1ccc2c(c1OC)C=CC(C)(C)O2)c1ccnc2cc(OC)c(OC)cc12	–
76	COc1cc2ccc(C(=O)c3ccc4c(c3OC)C=CC(C)(C)O4)nc2cc1OC	–
40.6	COc1cc2cc(C(=O)c3ccc4ncccc4c3)oc2cc1OC	–
115	COc1cc2cc(C(OC(=O)C3CC3)c3ccc4ncccc4c3)oc2cc1OC (centres undefined)	–
115	COc1cc2nccc(C(OC(=O)C3CC3)c3ccc4ncccc4c3)c2cc1OC (centres undefined)	–
85.3	COc1ccc(CC(=O)c2ccc3c(c2OC)C=CC(C)(C)O3)cc1OC	–
71	COc1cc2ccc(C(OC(=O)C3CC3)c3ccc4c(c3OC)C=CC(C)(C)O4)nc2cc1OC (centres undefined)	–
66.5	CO/N=C(/c1cc2cc(OC)c(OC)cc2o1)c1ccc2c(c1OC)C=CC(C)(C)O2	inhibition [1]: 76.9%
53.9	COc1cc2nccc(C(OC(=O)C3CC3)c3ccc4c(c3OC)C=CC(C)(C)O4)c2cc1OC (centres undefined)	Activity (NCI-H1299): Dose-dependent effect; inhibition [6]: Dose-dependent effect; inhibition (Homo sapiens [4]): Active; inhibition [1]: 63.3%; inhibition (Homo sapiens [5]): Active; Activity [3]: <50%
64	COc1cc2c(cc1OC)[C@@H]1C(=O)c3ccc4c(c3O[C@@H]1CO2)C=CC(C)(C)O4	inhibition (Homo sapiens [4]): Active; inhibition [1]: 94%; inhibition (Homo sapiens [5]): Active
92.4	COc1cc2occ(C(=O)c3ccc4c(c3OC)C=CC(C)(C)O4)c2cc1OC	inhibition [1]: 105%
71.5	COc1cc2nccc(C(O)c3ccc4c(c3OC)C=CC(C)(C)O4)c2cc1OC (centres undefined)	–
86	COc1cc2ccc(C(O)c3ccc4c(c3OC)C=CC(C)(C)O4)nc2cc1OC (centres undefined)	–
68.9	COc1cc2nccc(C(N)c3ccc4c(c3OC)C=CC(C)(C)O4)c2cc1OC (centres undefined)	–
102	COc1cc2nccc(C(O)c3ccc4c(ccn4C)c3)c2cc1OC (centres undefined)	–
88.6	COc1cc2ncnc(C(OC(C)=O)c3ccc4c(c3OC)C=CC(C)(C)O4)c2cc1OC (centres undefined)	–
70.6	COc1cc2cc(/C(=N/O)c3ccc4c(c3OC)C=CC(C)(C)O4)oc2cc1OC	–

— ChEMBL document CHEMBL3860097, “Synthesis and biological evaluation of C-ring truncated deguelin derivatives as heat shock protein 90 (HSP90) inhibitors” (2016)
